Test results as given in PubChem BioAssay AID2060619 (Molecular Pharmacology Branch, DTP, NCI, 2025).

Test system: 323965-272-R-J2-PDC complex spheroid viability
Assay: Anticancer human tumor 323965-272-R-J2-PDC patient-derived pancreatic carcinoma cell line growth inhibition [CLK]
Details: for IC50: curve of first compound; for viability, T/C: stronger effect = lower value
Outline: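 Patient-derived tumor cells grown as complex spheroids with HUVEC endothelial cells and mesenchymal stem cells, treated with drug combinations. Concentrations descend in half-log steps from near clinical Cmax, or from 10 microM if Cmax unknown.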

[1] = second compound 0.0316 µM, first compound 0.0316 µM
[2] = second compound 0.0316 µM, first compound 0.1 µM
[3] = second compound 0.0316 µM, first compound 0.316 µM
[4] = second compound 0.0316 µM, first compound 1 µM
[5] = second compound 0.0316 µM, first compound 3.16 µM
[6] = second compound 0.0316 µM, first compound 10 µM
[7] = second compound 0.1 µM, first compound 0.0316 µM
[8] = second compound 0.1 µM, first compound 0.1 µM
[9] = second compound 0.1 µM, first compound 0.316 µM
[10] = second compound 0.1 µM, first compound 1 µM
[11] = second compound 0.1 µM, first compound 3.16 µM
[12] = second compound 0.1 µM, first compound 10 µM
[13] = second compound 0.316 µM, first compound 0.0316 µM
[14] = second compound 0.316 µM, first compound 0.1 µM
[15] = second compound 0.316 µM, first compound 0.316 µM
[16] = second compound 0.316 µM, first compound 1 µM
[17] = second compound 0.316 µM, first compound 3.16 µM
[18] = second compound 0.316 µM, first compound 10 µM
[19] = second compound 1 µM, first compound 0.0316 µM
[20] = second compound 1 µM, first compound 0.1 µM
[21] = second compound 1 µM, first compound 0.316 µM
[22] = second compound 1 µM, first compound 1 µM
[23] = second compound 1 µM, first compound 3.16 µM
[24] = second compound 1 µM, first compound 10 µM
[25] = second compound 3.16 µM, first compound 0.0316 µM
[26] = second compound 3.16 µM, first compound 0.1 µM
[27] = second compound 3.16 µM, first compound 0.316 µM
[28] = second compound 3.16 µM, first compound 1 µM
[29] = second compound 3.16 µM, first compound 3.16 µM
[30] = second compound 3.16 µM, first compound 10 µM
[31] = second compound 10 µM, first compound 0.0316 µM
[32] = second compound 10 µM, first compound 0.1 µM
[33] = second compound 10 µM, first compound 0.316 µM
[34] = second compound 10 µM, first compound 1 µM
[35] = second compound 10 µM, first compound 3.16 µM
[36] = second compound 10 µM, first compound 10 µM
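Note: spheroids exposed to agents for seven days before readout.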
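Throughout, for viability, T/C: percent of DMSO vehicle control wells so 100% = untreated growth.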

CC1(C)CCC(CN2CCN(c3ccc(C(=O)NS(=O)(=O)c4ccc(NCC5CCOCC5)c([N+](=O)[O-])c4)c(Oc4cnc5[nH]ccc5c4)c3)CC2)=C(c2ccc(Cl)cc2)C1 + CN1CCN(c2cc(C(=O)Nc3cc4cc(-c5cnn(C)c5)ccc4cn3)ccn2)CC1
IC50 (second compound 0.0316 µM): 4960 nM
IC50 (second compound 0.1 µM): 3600 nM
IC50 (second compound 0.316 µM): < 31.6 nM
IC50 (second compound 1 µM): < 31.6 nM
IC50 (second compound 3.16 µM): < 31.6 nM
IC50 (second compound 10 µM): < 31.6 nM
viability, T/C [1]: 91.3%
viability, T/C [2]: 97.7%
viability, T/C [3]: 93.8%
viability, T/C [4]: 92.2%
viability, T/C [5]: 78.8%
viability, T/C [6]: 5.11%
viability, T/C [7]: 69.6%
viability, T/C [8]: 63.8%
viability, T/C [9]: 65.4%
viability, T/C [10]: 68.5%
viability, T/C [11]: 55.8%
viability, T/C [12]: 5.08%
viability, T/C [13]: 27.8%
viability, T/C [14]: 24.5%
viability, T/C [15]: 28.6%
viability, T/C [16]: 27.1%
viability, T/C [17]: 20.2%
viability, T/C [18]: 4.31%
viability, T/C [19]: 3.4%
viability, T/C [20]: 3.32%
viability, T/C [21]: 4.86%
viability, T/C [22]: 2.95%
viability, T/C [23]: 2.45%
viability, T/C [24]: 2.47%
viability, T/C [25]: 3.55%
viability, T/C [26]: 3.34%
viability, T/C [27]: 3.03%
viability, T/C [28]: 2.11%
viability, T/C [29]: 1.06%
viability, T/C [30]: 0.14%
viability, T/C [31]: 4.06%
viability, T/C [32]: 3.26%
viability, T/C [33]: 3.77%
viability, T/C [34]: 2.06%
viability, T/C [35]: 0.92%
viability, T/C [36]: 3.22%

CC1COCCN1c1cc(C2(S(C)(=N)=O)CC2)nc(-c2ccnc3[nH]ccc23)n1 (stereo not drawn) + CN1CCN(c2cc(C(=O)Nc3cc4cc(-c5cnn(C)c5)ccc4cn3)ccn2)CC1
IC50 (second compound 0.0316 µM): 1820 nM
IC50 (second compound 0.1 µM): 701 nM
IC50 (second compound 0.316 µM): < 31.6 nM
IC50 (second compound 1 µM): < 31.6 nM
IC50 (second compound 3.16 µM): < 31.6 nM
IC50 (second compound 10 µM): < 31.6 nM
viability, T/C [1]: 98.2%
viability, T/C [2]: 103%
viability, T/C [3]: 79.5%
viability, T/C [4]: 65.8%
viability, T/C [5]: 36.7%
viability, T/C [6]: 25.6%
viability, T/C [7]: 66.9%
viability, T/C [8]: 77.2%
viability, T/C [9]: 67%
viability, T/C [10]: 41.8%
viability, T/C [11]: 31%
viability, T/C [12]: 23.6%
viability, T/C [13]: 24.6%
viability, T/C [14]: 29.2%
viability, T/C [15]: 22.1%
viability, T/C [16]: 21.4%
viability, T/C [17]: 17.4%
viability, T/C [18]: 15.1%
viability, T/C [19]: 3.95%
viability, T/C [20]: 3.37%
viability, T/C [21]: 3.9%
viability, T/C [22]: 3.84%
viability, T/C [23]: 2.35%
viability, T/C [24]: 2.79%
viability, T/C [25]: 4.84%
viability, T/C [26]: 4.43%
viability, T/C [27]: 4.15%
viability, T/C [28]: 3.73%
viability, T/C [29]: 3.53%
viability, T/C [30]: 4.26%
viability, T/C [31]: 4.2%
viability, T/C [32]: 3.8%
viability, T/C [33]: 4.37%
viability, T/C [34]: 3.26%
viability, T/C [35]: 4.39%
viability, T/C [36]: 2.79%

NC(=O)C(=Cn1cnc(-c2cc(C(F)(F)F)cc(C(F)(F)F)c2)n1)c1cncnc1 + CN1CCN(c2cc(C(=O)Nc3cc4cc(-c5cnn(C)c5)ccc4cn3)ccn2)CC1
IC50 (second compound 0.0316 µM): 907 nM
IC50 (second compound 0.1 µM): 365 nM
IC50 (second compound 0.316 µM): < 9.49 nM
IC50 (second compound 1 µM): < 9.49 nM
IC50 (second compound 3.16 µM): < 9.49 nM
IC50 (second compound 10 µM): < 9.49 nM
viability, T/C (second compound 0.0316 µM, first compound 0.00949 µM): 99.5%
viability, T/C (second compound 0.0316 µM, first compound 0.03 µM): 100%
viability, T/C (second compound 0.0316 µM, first compound 0.0949 µM): 71.5%
viability, T/C (second compound 0.0316 µM, first compound 0.3 µM): 58.4%
viability, T/C (second compound 0.0316 µM, first compound 0.949 µM): 59.3%
viability, T/C (second compound 0.0316 µM, first compound 3 µM): 30%
viability, T/C (second compound 0.1 µM, first compound 0.00949 µM): 67.1%
viability, T/C (second compound 0.1 µM, first compound 0.03 µM): 64.7%
viability, T/C (second compound 0.1 µM, first compound 0.0949 µM): 60.4%
viability, T/C (second compound 0.1 µM, first compound 0.3 µM): 52.1%
viability, T/C (second compound 0.1 µM, first compound 0.949 µM): 38.6%
viability, T/C (second compound 0.1 µM, first compound 3 µM): 17%
viability, T/C (second compound 0.316 µM, first compound 0.00949 µM): 23.6%
viability, T/C (second compound 0.316 µM, first compound 0.03 µM): 24%
viability, T/C (second compound 0.316 µM, first compound 0.0949 µM): 20.3%
viability, T/C (second compound 0.316 µM, first compound 0.3 µM): 12.3%
viability, T/C (second compound 0.316 µM, first compound 0.949 µM): 5.84%
viability, T/C (second compound 0.316 µM, first compound 3 µM): 1.04%
viability, T/C (second compound 1 µM, first compound 0.00949 µM): 2.31%
viability, T/C (second compound 1 µM, first compound 0.03 µM): 2.24%
viability, T/C (second compound 1 µM, first compound 0.0949 µM): 4.13%
viability, T/C (second compound 1 µM, first compound 0.3 µM): 2.36%
viability, T/C (second compound 1 µM, first compound 0.949 µM): 1.39%
viability, T/C (second compound 1 µM, first compound 3 µM): 0.76%
viability, T/C (second compound 3.16 µM, first compound 0.00949 µM): 2.18%
viability, T/C (second compound 3.16 µM, first compound 0.03 µM): 4.18%
viability, T/C (second compound 3.16 µM, first compound 0.0949 µM): 3.49%
viability, T/C (second compound 3.16 µM, first compound 0.3 µM): 1.2%
viability, T/C (second compound 3.16 µM, first compound 0.949 µM): 0.81%
viability, T/C (second compound 3.16 µM, first compound 3 µM): 1.01%
viability, T/C (second compound 10 µM, first compound 0.00949 µM): 2.14%
viability, T/C (second compound 10 µM, first compound 0.03 µM): 1.92%
viability, T/C (second compound 10 µM, first compound 0.0949 µM): 1.56%
viability, T/C (second compound 10 µM, first compound 0.3 µM): 1.44%
viability, T/C (second compound 10 µM, first compound 0.949 µM): 2%
viability, T/C (second compound 10 µM, first compound 3 µM): 0.3%

Nc1ccccc1NC(=O)c1ccc(CNC(=O)OCc2cccnc2)cc1 + CN1CCN(c2cc(C(=O)Nc3cc4cc(-c5cnn(C)c5)ccc4cn3)ccn2)CC1
IC50 (second compound 0.0316 µM): 6960 nM
IC50 (second compound 0.1 µM): 3000 nM
IC50 (second compound 0.316 µM): < 31.6 nM
IC50 (second compound 1 µM): < 31.6 nM
IC50 (second compound 3.16 µM): < 31.6 nM
IC50 (second compound 10 µM): < 31.6 nM
viability, T/C [1]: 92.1%
viability, T/C [2]: 92.3%
viability, T/C [3]: 93.6%
viability, T/C [4]: 99%
viability, T/C [5]: 63.5%
viability, T/C [6]: 43.8%
viability, T/C [7]: 79%
viability, T/C [8]: 75.9%
viability, T/C [9]: 80%
viability, T/C [10]: 78.7%
viability, T/C [11]: 48.6%
viability, T/C [12]: 30.6%
viability, T/C [13]: 26.4%
viability, T/C [14]: 24.6%
viability, T/C [15]: 21.4%
viability, T/C [16]: 21.8%
viability, T/C [17]: 17.1%
viability, T/C [18]: 16.8%
viability, T/C [19]: 3.43%
viability, T/C [20]: 3.41%
viability, T/C [21]: 4.13%
viability, T/C [22]: 2.18%
viability, T/C [23]: 2.06%
viability, T/C [24]: 0.81%
viability, T/C [25]: 3.66%
viability, T/C [26]: 5.59%
viability, T/C [27]: 6.21%
viability, T/C [28]: 4.43%
viability, T/C [29]: 2.9%
viability, T/C [30]: 3.42%
viability, T/C [31]: 3.69%
viability, T/C [32]: 4.56%
viability, T/C [33]: 5.4%
viability, T/C [34]: 4.41%
viability, T/C [35]: 4.37%
viability, T/C [36]: 2.69%
